Data on six molecules can be found in patent US6124278A, “Acylbenzoxazines for enhancing synaptic response” (The Regents of the University of California, priority 1998, dated 2000).

Values joined by “and” are separate entries in the source; they are usually repeats but may differ in a detail not shown here. Identical values can stand only once. Like-named read-outs stand apart in the source and are kept apart here.

Data set [1] has as its system AMPA receptors. Kind of data set: Field EPSP response in rat hippocampal slices (CA1). It counts as cell-based, rat (Sprague-Dawley). To be noted: for EPSP Response (percentage increase in the area of the EPSP response): rat hippocampal slices. On the procedure: The physiological effects of invention compounds can be tested in vitro with slices of rat hippocampus according to the following procedure. Excitatory responses (field EPSPs) are measured in hippocampal slices, which are maintained in a recording chamber continuously perfused with artificial cerebrospinal fluid (ACSF). During a 15-30 minute interval, the perfusion medium is switched to one containing various concentrations of the test compounds. Responses collected immediately before and at the end of drug perfusion were superimposed in order to calculate both the percent increase in EPSP amplitude and percent increase in the width of the response at one-half the peak height (half-width).
To conduct these tests, the hippocampus was removed from anesthetized, 2 month old Sprague-Dawley rats and in vitro slices (400 micrometers thick) were prepared and maintained in an interface chamber at 35° C. using conventional techniques [see, for example, Dunwiddie and Lynch, J. Physiol. 276: 353-367 (1978)]. The chamber was constantly perfused at 0.5 mL/min with ACSF containing (in mM): NaCl 124, KCl 3, KH2 PO4 1.25, MgSO4 2.5, CaCl2 3.4, NaHCO3 26, glucose 10 and L-ascorbate 2. A bipolar nichrome stimulating electrode was positioned in the dendritic layer (stratum radiatum) of the hippocampal subfield CA1 close to the border of subfield CA3.
Current pulses (0.1 msec) through the stimulating electrode activate a population of the Schaffer-commissural (SC) fibers that arise from neurons in the subdivision CA3 and terminate in synapses on the dendrites of CA1 neurons. Activation of these synapses causes them to release the transmitter glutamate. Glutamate binds to the post-synaptic AMPA receptors which then transiently open an associated ion channel and permit a sodium current to enter the postsynaptic cell. This current results in a voltage in the extracellular space (the field excitatory post-synaptic potential or field "EPSP") which is recorded by a high impedance recording electrode positioned in the middle of the stratum radiatum of CA1.
For the experiments summarized Table 1, the intensity of the stimulation current was adjusted to produce half-maximal EPSPs (typically about 1.5-2.0 mV). Paired stimulation pulses were given every 40 sec with an interpulse interval of 200 msec (see below). The field EPSPs of the second response were digitized and analyzed to determine amplitude, half-width, and response area. If the responses were stable for 15-30 minutes (baseline), test compounds were added to the perfusion lines for a period of about 15 minutes. The perfusion was then changed back to regular ACSF.
Paired-pulse stimulation was used since stimulation of the SC fibers, in part, activates interneurons which generate an inhibitory postsynaptic potential (IPSP) in the pyramidal cells of CA1. This feed forward IPSP typically sets in after the EPSP reaches its peak. It accelerates the repolarization and shortens the decay phase of the EPSP, and thus could partially mask the effects of the test compounds. One of the relevant features of the feed-forward IPSP is that it can not be reactivated for several hundred milliseconds following a stimulation pulse. […]
The field EPSP recorded in field CA1 after stimulation of CA3 axons is known to be mediated by AMPA receptors: the receptors are present in the synapses [Kessler et al., Brain Res. 560: 337-341 (1991)] and drugs that selectively block the receptor selectively block the field EPSP [Muller et al., Science, supra]. […]

The nature of data set [2]: Memory enhancement in eight-arm radial maze. It counts as in vivo. As to conditions: rat, read-out: Maze MED (Minimum Effective Dose to improve performance of rats in the eight-arm radial maze). The source says: (§1) The third data column reports the magnitude of the increase in the amplitude of the EPSP at the lowest concentrations that produced a significant increase. The characteristic of a compound to produce an increase in the EPSP response has been a reliable predictor of the ability to improve memory in the 8-arm radial maze task.
^.dagger-dbl. Minimum Effective Dose to improve performance of rats i
the eightarm radial maze.

Data set [3] deals with AMPA receptors. As to conditions: metabolite; cited from earlier work.
A short description of data set [4]: Plasma clearance half-life and oral bioavailability (AUC oral vs iv) in rat. Format: in vivo.
Description: as §1
*Plasma clearance following iv administration in rat
^# AUC for oral administration as a percentage of AUC for iv

The conditions of data set [5]: comparison compound, Example 1 of U.S. Pat. No. 5,736,543; rat; cited from earlier work.

Consider `O=C1CCC2Oc3cc4c(cc3CN12)OCCO4` (centres unmarked) [Compound 2, 6a,7,8,9-Tetrahydro-1,4-dioxin[2,3-g]pyrrolo[2,1-b][1,3]benzoxazine-9(11H)-one], for which, in the data set on AMPA receptors [1] (30 μM), the “EPSP Response (percentage increase in the area of the EPSP response)” value is on record as 20%. The minimal effective dose in data set [2] is 0.1 mg/kg. In the case of `O=C1CCC2Oc3cc4c(cc3C(=O)N12)OCO4` (centres unmarked) [Compound 4, 5a,6,7,8-Tetrahydro-1,3-dioxolo[4,5-g]pyrrolo[2,1-b][1,3]benzoxazine-8,10(10H)-dione], in the data set with AMPA receptors [1] (300 μM), the “Activity in the slice model, in words” value was “inactive” and the “EPSP Response (percentage increase in the area of the EPSP response)” value turned out to be 0%. As to `COc1ccc(C(=O)NCCCC(=O)O)cc1` [anisoyl-GABA], in the data set on AMPA receptors [3], the Aniracetam-like effects result is given as “only weak aniracetam-like effects”.

On to `O=C1CCCC2Oc3cc4c(cc3CN12)OCCO4` (centres unmarked) [Compound 3, 6a,7,8,9-Tetrahydro-1,4-dioxan[2,3-g]pyrido[2,1-b][1,3]benzoxazine-10(10H,12H)-dione], for which the “EPSP Response (percentage increase in the area of the EPSP response)” value in the data set on AMPA receptors [1] (30 μM) is given as 10%. For `O=C1CCC2Oc3cc4c(cc3CN12)OCO4` (centres unmarked) [Compound 1, 5a,6,7,8-Tetrahydro-1,3-dioxolo[4,5-g]pyrrolo[2,1-b][1,3]benzoxazine-8(10H)-one], in the data set on AMPA receptors [1] (300 μM), the “EPSP Response (percentage increase in the area of the EPSP response)” value was 20% and 25%. In data set [4] (iv administration), the half-life came to 58 min. In data set [4] (oral vs iv, read-out: Bioavailability (AUC for oral administration as a percentage of AUC for iv)), the bioavailability came out at 100%. Turning to `O=C1c2cc3c(cc2OC2CCCN12)OCO3` (centres unmarked) [Example 1 of U.S. Pat. No. 5,736,543], in data set [5], the bioavailability is 35% and the half-life is given as 31 min.

In general, half-life refers to the time in which the quantity being followed falls by half.
